Experimental data: US11497752B2, “Compounds and uses thereof” (Foghorn Therapeutics Inc., priority 2018, dated 2022)

Legend:
[1] = target: BRM (Homo sapiens, UniProt P51531); assay: ATPase catalytic activity of BRM (ADP-Glo in vitro biochemical assay)
[2] = target: BRG-1 (Homo sapiens, UniProt P51532); assay: ATPase catalytic activity of BRG-1 (ADP-Glo in vitro biochemical assay)
Sequence of BRG-1 (P51532 whole entry): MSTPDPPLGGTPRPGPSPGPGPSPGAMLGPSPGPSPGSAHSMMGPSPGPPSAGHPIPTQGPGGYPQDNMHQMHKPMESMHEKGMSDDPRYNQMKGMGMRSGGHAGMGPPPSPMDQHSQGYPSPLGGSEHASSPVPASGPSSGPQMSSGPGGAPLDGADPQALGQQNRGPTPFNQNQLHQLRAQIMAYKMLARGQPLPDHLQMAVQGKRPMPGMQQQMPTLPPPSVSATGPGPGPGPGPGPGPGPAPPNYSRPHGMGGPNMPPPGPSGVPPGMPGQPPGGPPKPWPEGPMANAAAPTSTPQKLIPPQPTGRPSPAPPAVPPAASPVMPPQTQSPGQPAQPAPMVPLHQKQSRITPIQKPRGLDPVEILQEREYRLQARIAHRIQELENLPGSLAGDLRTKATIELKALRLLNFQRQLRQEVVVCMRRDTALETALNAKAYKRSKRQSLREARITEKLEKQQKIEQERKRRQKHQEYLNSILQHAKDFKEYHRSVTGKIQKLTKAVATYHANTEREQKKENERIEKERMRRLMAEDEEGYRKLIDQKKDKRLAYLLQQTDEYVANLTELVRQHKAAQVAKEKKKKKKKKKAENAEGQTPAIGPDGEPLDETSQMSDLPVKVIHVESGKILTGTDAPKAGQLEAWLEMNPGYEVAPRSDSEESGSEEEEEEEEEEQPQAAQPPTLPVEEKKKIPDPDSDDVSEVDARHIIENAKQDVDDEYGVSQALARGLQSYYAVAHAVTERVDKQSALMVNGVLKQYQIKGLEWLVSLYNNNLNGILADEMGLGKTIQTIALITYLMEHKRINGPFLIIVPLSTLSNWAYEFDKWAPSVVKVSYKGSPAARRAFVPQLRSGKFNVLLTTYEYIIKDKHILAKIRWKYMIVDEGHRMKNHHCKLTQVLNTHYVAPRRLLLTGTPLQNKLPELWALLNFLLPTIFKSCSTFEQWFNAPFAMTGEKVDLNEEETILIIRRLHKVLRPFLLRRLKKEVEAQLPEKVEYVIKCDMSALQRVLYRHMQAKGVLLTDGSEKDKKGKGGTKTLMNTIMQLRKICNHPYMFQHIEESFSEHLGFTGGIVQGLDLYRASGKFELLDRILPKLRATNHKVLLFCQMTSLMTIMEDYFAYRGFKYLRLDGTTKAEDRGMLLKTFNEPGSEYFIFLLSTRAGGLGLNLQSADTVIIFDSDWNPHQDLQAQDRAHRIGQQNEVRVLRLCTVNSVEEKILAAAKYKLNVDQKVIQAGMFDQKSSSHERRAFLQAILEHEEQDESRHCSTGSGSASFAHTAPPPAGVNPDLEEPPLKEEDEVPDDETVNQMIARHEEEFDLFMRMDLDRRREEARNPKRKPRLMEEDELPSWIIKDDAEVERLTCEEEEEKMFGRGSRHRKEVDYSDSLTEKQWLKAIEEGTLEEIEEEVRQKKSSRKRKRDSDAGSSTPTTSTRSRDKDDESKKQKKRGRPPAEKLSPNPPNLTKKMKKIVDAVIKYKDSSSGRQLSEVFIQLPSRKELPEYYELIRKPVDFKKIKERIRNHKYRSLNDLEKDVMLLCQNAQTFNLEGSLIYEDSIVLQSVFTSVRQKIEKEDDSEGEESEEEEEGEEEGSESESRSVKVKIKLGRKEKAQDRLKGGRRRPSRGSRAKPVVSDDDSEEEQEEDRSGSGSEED

Sequence of BRM (P51531 whole entry): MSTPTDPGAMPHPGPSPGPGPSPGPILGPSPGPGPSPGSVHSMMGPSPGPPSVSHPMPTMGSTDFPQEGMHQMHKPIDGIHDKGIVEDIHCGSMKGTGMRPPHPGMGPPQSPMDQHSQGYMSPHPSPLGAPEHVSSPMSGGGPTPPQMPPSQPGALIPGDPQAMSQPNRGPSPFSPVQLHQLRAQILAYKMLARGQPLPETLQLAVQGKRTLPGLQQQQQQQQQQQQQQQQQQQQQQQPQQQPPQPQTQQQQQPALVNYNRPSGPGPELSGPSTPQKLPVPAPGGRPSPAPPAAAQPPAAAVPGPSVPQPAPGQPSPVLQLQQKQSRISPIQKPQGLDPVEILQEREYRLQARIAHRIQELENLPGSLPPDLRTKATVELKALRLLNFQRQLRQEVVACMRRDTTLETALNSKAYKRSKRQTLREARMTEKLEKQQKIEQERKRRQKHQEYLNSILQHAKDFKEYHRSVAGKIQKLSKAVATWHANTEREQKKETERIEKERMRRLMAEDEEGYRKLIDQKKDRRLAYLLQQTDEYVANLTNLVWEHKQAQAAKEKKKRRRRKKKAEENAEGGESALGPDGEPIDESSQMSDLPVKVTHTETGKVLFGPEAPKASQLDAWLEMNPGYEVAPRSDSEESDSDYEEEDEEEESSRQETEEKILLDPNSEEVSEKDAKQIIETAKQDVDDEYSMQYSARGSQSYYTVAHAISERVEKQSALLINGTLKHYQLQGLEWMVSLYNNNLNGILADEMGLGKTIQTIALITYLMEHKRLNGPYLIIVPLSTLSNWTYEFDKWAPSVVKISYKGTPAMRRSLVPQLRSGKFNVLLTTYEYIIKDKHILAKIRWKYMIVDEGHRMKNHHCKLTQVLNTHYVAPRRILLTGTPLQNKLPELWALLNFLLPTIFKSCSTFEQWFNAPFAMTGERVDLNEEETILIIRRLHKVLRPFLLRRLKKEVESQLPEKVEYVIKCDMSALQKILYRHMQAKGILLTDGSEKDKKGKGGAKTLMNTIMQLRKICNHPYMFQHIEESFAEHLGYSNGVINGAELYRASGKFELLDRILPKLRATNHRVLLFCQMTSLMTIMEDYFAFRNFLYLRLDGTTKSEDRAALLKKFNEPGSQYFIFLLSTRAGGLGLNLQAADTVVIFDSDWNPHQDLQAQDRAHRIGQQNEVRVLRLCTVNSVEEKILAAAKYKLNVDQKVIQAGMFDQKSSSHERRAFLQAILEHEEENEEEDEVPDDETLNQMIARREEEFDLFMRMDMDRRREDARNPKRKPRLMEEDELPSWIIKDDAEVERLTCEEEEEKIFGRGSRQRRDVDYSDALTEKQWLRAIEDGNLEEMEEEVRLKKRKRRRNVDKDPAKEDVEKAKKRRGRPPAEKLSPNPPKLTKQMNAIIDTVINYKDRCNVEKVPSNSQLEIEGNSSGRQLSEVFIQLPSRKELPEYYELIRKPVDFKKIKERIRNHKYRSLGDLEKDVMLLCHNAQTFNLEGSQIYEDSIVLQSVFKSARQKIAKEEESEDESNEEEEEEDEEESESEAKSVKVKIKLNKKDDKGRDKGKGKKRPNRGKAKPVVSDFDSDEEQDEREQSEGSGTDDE

Row | Compound | IC50 [1] [nM] | BRM Max % Inhibition ([1]; Table 5) [%] | IC50 [2] [nM] | BRG1 Max % Inhibition ([2]; Table 5) [%] | BRM Max % Inhibition ([1]; Table 6) [%] | BRG1 Max % Inhibition ([2]; Table 6) [%]
1 | CSCC[C@H](NC(=O)c1cccc(S(=O)(=O)C(C)C)c1)C(=O)Nc1nc(-c2ccccc2)cs1 [Compound 14, (S)-3-(isopropylsulfonyl)-N-(4-(methylthio)-1-oxo-1-((4-phenylthiazol-2-yl)amino)butan-2-yl)benzamide] | 1000 to 10000 | >80 | > 10000 | >60 | – | –
2 | Nc1ccc(C(=O)NCC(=O)Nc2nc(-c3cccc(CCc4ccncc4)c3)cs2)cc1 [Compound 218, 4-amino-N-[2-oxo-2-[[4-[3-[2-(4-pyridyl)ethyl]phenyl]thiazol-2-yl]amino]ethyl]benzamide] | < 100 | – | 100 to 1000 | – | >95 | >90
3 | CSCC[C@H](NC(=O)c1cccc(S(C)(=O)=O)c1)C(=O)Nc1nc(-c2ccccc2)cs1 [Compound 3, (S)-3-(methylsulfonyl)-N-(4-(methylthio)-1-oxo-1-((4-phenylthiazol-2-yl)amino)butan-2-yl)benzamide] | 1000 to 10000 | >95 | 1000 to 10000 | >90 | – | –
4 | CSCC[C@H](NC(=O)c1ccc(CNC(C)=O)cc1)C(=O)Nc1nc(-c2ccccc2)cs1 [Compound 74, 4-(acetamidomethyl)-N-[3-methylsulfanyl-1-[(4-phenylthiazol-2-yl)carbamoyl]propyl]benzamide] | > 10000 | >50 | > 10000 | >30 | – | –
5 | CS(=O)(=O)c1ccnc(C(=O)NCC(=O)Nc2nc(-c3cccc(-c4ccncc4)c3)cs2)c1 [Compound 104, 4-methylsulfonyl-N-[2-oxo-2-[[4-[3-(4-pyridyl)phenyl]thiazol-2-yl]amino]ethyl]pyridine-2-carboxamide] | < 100 | – | < 100 | – | >70 | >60

More lines, now with the values ahead:

Row | IC50 [1] [nM] | BRM Max % Inhibition ([1]; Table 5) [%] | IC50 [2] [nM] | BRG1 Max % Inhibition ([2]; Table 5) [%] | BRM Max % Inhibition ([1]; Table 6) [%] | BRG1 Max % Inhibition ([2]; Table 6) [%] | Compound
6 | < 100 | – | < 100 | – | >95 | >95 | COC(=O)c1cc(-c2cccc(-c3csc(NC(=O)CNC(=O)c4ccc(N)cc4)n3)c2)ccn1 [Compound 181, methyl 4-(3-(2-(2-(4-aminobenzamido)acetamido)thiazol-4-yl)phenyl)picolinate]
7 | < 100 | – | < 100 | – | >95 | >95 | CN(C)C(=O)c1cccc(-c2cccc(-c3csc(NC(=O)CNC(=O)c4ccc(N)cc4)n3)c2)c1 [Compound 131, 3′-(2-(2-(4-aminobenzamido)acetamido)thiazol-4-yl)-N,N-dimethyl-[1,1′-biphenyl]-3-carboxamide]
8 | < 100 | – | < 100 | – | >95 | >95 | Nc1ccc(C(=O)NCC(=O)Nc2nc(-c3cccc(-c4ccnc(N)c4)c3)cs2)cc1 [Compound 133, 4-amino-N-(2-((4-(3-(2-aminopyridin-4-yl)phenyl)thiazol-2-yl)amino)-2-oxoethyl)benzamide]
9 | 100 to 1000 | – | 100 to 1000 | – | >90 | >90 | CN(C)CCNc1cc(-c2cccc(-c3csc(NC(=O)CNC(=O)c4ccc(N)cc4)n3)c2)ccn1 [Compound 189, 4-amino-N-[2-[[4-[3-[2-[2-(dimethylamino)ethylamino]-4-pyridyl]phenyl]thiazol-2-yl]amino]-2-oxo-ethyl]benzamide]
10 | < 100 | – | < 100 | – | >95 | >95 | CNC(=O)Cc1cc(-c2cccc(-c3csc(NC(=O)CNC(=O)c4ccc(N)cc4)n3)c2)ccn1 [Compound 205, 4-amino-N-[2-[[4-[3-[2-[2-(methylamino)-2-oxo-ethyl]-4-pyridyl]phenyl]thiazol-2-yl]amino]-2-oxo-ethyl]benzamide]
